Source: patent publication US20250221988A1 (Cullgen (Shanghai), Inc., priority 2022, published 2025)
Where two headings read alike, the source gives them in different places.

What was measured:
[1] = test system: MOLM-13 cells; test: Cell viability assay (CellTiter-Glo) in MOLM-13 cells; assay type: cell-based
Protocol: (§1) Cell Culture: RS4;11, MV4;11, MOLM-13 and other cells were cultured at 37° C. with 5% CO2 in RPMI 1640 or DMEM Medium supplemented with 10% fetal bovine serum. Cells were authenticated using the short tandem repeat (STR) assays. Mycoplasma test results were negative.
Cell viability assays: Cells were seeded at a density of 5000 cells per well in 96-well assay plates and treated with test compounds following a 8-point or 12-point 3-fold serial dilution. Three days later, cell viability was determined using the CellTiter-Glo assay kit according to the manufacturer's instructions. The dose-response curves were determined and IC50 values were calculated using the GraphPad Prism software following a nonlinear regression (least squares fit) method. […]

[2] = test system: MV4;11 cells; test: Cell viability assay (CellTiter-Glo) in MV4;11 cells; assay type: cell-based; conditions: read-out: MV4
Protocol: as §1
Cell viability assays: Cells were seeded at a density of 5000 cells per well in 96-well assay plates and treated with test compounds following a 8-point or 12-point 3-fold serial dilution. Three days later, cell viability was determined using the CellTiter-Glo assay kit according to the manufacturer's instructions. The dose-response curves were determined and IC50 values were calculated using the GraphPad Prism software following a nonlinear regression (least squares fit) method.
The IC50 values (nM) of each compound were determined in MV4;11 and MOLM-13 cells with or without gilteritinib (10 nM for MV4;11; and 20 nM for MOML-13) as described in the Materials and Methods subsection and calculated using the GraphPad Prism 5.0 software.

[3] = Homo sapiens, 72 h, MOLM-13 cells, compound alone, three days, read-out: MOLM-13 IC50
[4] = MOLM-13 cells, with gilteritinib, three days, read-out: MOLM-13 IC50 (nM) + 10 nM Gil
[5] = Homo sapiens, MV4-11, 72 h, MV4;11 cells, compound alone, three days, 11 IC50
[6] = MV4;11 cells, with 10 nM gilteritinib, three days, 11 IC50 (nM) + 10 nM Gil

SMILES | IC50 [1, 3] [nM] | IC50 [1, 4] [nM] | IC50 [2, 5] [nM] | IC50 [2, 6] [nM] | IC50 ([1]; Homo sapiens, MOLM-13, 72 h, read-out: MOLM-13 IC50 (nM)) [nM] | IC50 ([1]; read-out: MOLM-13 IC50 (nM) + 10 nM Gil, MOLM-13 cells, with gilteritinib, three days) [nM] | IC50 ([2]; Homo sapiens, MV4-11, 72 h, 11 IC50 (nM)) [nM]
O=C1CCC(N2C(=O)c3ccc(NC[C@H]4C[C@H](n5cc(Nc6ccncc6)c(C6CC6)n5)C4)cc3C2=O)C(=O)N1 (stereo partly drawn) [GS-671, 5-(((Trans-3-(3-cyclopropyl-4-(pyridin-4-ylamino)-1H-pyrazol-1-yl)cyclobutyl)methyl)amino)-2-(2,6-dioxopiperidin-3-y)isoindoline-1,3-dione] |  |  |  |  | > 1000 | 100 to 1000 | > 1000
O=C1CCC(N2C(=O)c3ccc(NC[C@H]4C[C@H](n5cc(-c6cc7c(cn6)cnn7C6CNC6)c(C6CC6)n5)C4)cc3C2=O)C(=O)N1 (stereo partly drawn) [GS-675, 5-(((Trans-3-(4-(1-(azetidin-3-yl)-1H-pyrazolo[4,3-c]pyridin-6-yl)-3-cyclopropyl-1H-pyrazol-1-yl)cyclobutyl)methyl)amino)-2-(2,6-dioxopiperidin-3-yl)isoindoline-1,3-dione] | > 1000 | 100 to 1000 | > 1000 | 100 to 1000 |  |  | 
Cc1cc(F)cnc1-c1cn([C@H]2C[C@H](CNc3ccc4c(c3)CN(C3CCC(=O)NC3=O)C4=O)C2)nc1C1CC1 (stereo partly drawn) [GS-676, 3-(5-(((Trans-3-(3-cyclopropyl-4-(5-fluoro-3-methylpyridin-2-yl)-1H-pyrazol-1-yl)cyclobutyl)methyl)amino)-1-oxoisoindolin-2-yl)piperidine-2,6-dione] | < 10 | < 10 | < 10 | < 10 |  |  | 
Cc1nc(-c2cn([C@H]3C[C@H](CNc4ccc5c(c4)CN(C4CCC(=O)NC4=O)C5=O)C3)nc2C(F)F)ccc1F (stereo partly drawn) [GS-677, 3-(5-(((Trans-3-(3-(difluoromethyl)-4-(5-fluoro-6-methylpyridin-2-yl)-1H-pyrazol-1-yl)cyclobutyl)methyl)amino)-1-oxoisoindolin-2-yl)piperidine-2,6-dione] | < 10 | < 10 | < 10 | < 10 |  |  | 
Cn1ncc2cnc(-c3cn([C@H]4C[C@H](CNc5ccc6c(c5)CN(C5CCC(=O)NC5=O)C6=O)C4)nc3C3CC3)cc21 (stereo partly drawn) [GS-678, 3-(5-(((Trans-3-(3-cyclopropyl-4-(1-methyl-1H-pyrazolo[4,3-c]pyridin-6-yl)-1H-pyrazol-1-yl)cyclobutyl)methyl)amino)-1-oxoisoindolin-2-yl)piperidine-2,6-dione] | < 10 | < 10 | < 10 | < 10 |  |  | 
CN1CC(n2cc3cnc(-c4cn([C@H]5C[C@H](CNc6ccc7c(c6)C(=O)N(C6CCC(=O)NC6=O)C7=O)C5)nc4C4CC4)cc3n2)C1 (stereo partly drawn) [GS-680, 5-(((Trans-3-(3-cyclopropyl-4-(2-(1-methylazetidin-3-yl)-2H-pyrazolo[4,3-c]pyridin-6-yl)-1H-pyrazol-1-yl)cyclobutyl)methyl)amino)-2-(2,6-dioxopiperidin-3-yl)isoindoline-1,3-dione] | 10 to 100 | < 10 | < 10 | < 10 |  |  | 
O=C1CCC(N2C(=O)c3ccc(NC[C@H]4C[C@H](n5cc(-c6ncc(F)cc6N6CCNCC6)c(C6CC6)n5)C4)cc3C2=O)C(=O)N1 (stereo partly drawn) [GS-683, 5-(((Trans-3-(3-cyclopropyl-4-(5-fluoro-3-(piperazin-1-yl)pyridin-2-yl)-1H-pyrazol-1-yl)cyclobutyl)methyl)amino)-2-(2,6-dioxopiperidin-3-yl)isoindoline-1,3-dione] | > 1000 |  | > 1000 |  |  |  | 
O=C1CCC(N2C(=O)c3ccc(NC[C@H]4C[C@H](n5cc(-c6ccc7[nH]ncc7n6)c(C6CC6)n5)C4)cc3C2=O)C(=O)N1 (stereo partly drawn) [GS-684, 5-(((Trans-3-(3-cyclopropyl-4-(1H-pyrazolo[4,3-b]pyridin-5-yl)-1H-pyrazol-1-yl)cyclobutyl)methyl)amino)-2-(2,6-dioxopiperidin-3-yl)isoindoline-1,3-dione] | 100 to 1000 | 10 to 100 | 10 to 100 | 10 to 100 |  |  | 
O=C1CCC(N2C(=O)c3ccc(NCCC[C@H]4C[C@H](n5cc(-c6nccc7c6NCCC7)c(C6CC6)n5)C4)cc3C2=O)C(=O)N1 (stereo partly drawn) [GS-685, 5-((3-(Trans-3-(3-cyclopropyl-4-(1,2,3,4-tetrahydro-1,7-naphthyridin-8-yl)-1H-pyrazol-1-yl)cyclobutyl)propyl)amino)-2-(2,6-dioxopiperidin-3-yl)isoindoline-1,3-dione] | > 1000 | 100 to 1000 | > 1000 | 100 to 1000 |  |  | 
O=C1CCC(N2C(=O)c3ccc(NC[C@H]4C[C@H](n5cc(-c6ncc(F)cc6C6CCNCC6)c(C6CC6)n5)C4)cc3C2=O)C(=O)C1 (stereo partly drawn) [GS-686, 5-(((Trans-3-(3-cyclopropyl-4-(5-fluoro-3-(piperidin-4-yl)pyridin-2-yl)-1H-pyrazol-1-yl)cyclobutyl)methyl)amino)-2-(2,4-dioxocyclohexyl)isoindoline-1,3-dione] | > 1000 | 100 to 1000 | > 1000 | 100 to 1000 |  |  | 
Cc1c2ccccc2nn1[C@H]1C[C@H](CNc2ccc3c(c2)C(=O)N(C2CCC(=O)NC2=O)C3=O)C1 (stereo partly drawn) [GS-688, 2-(2,6-Dioxopiperidin-3-yl)-5-(((trans-3-(3-methyl-2H-indazol-2-yl)cyclobutyl)methyl)amino)isoindoline-1,3-dione] | > 1000 | 100 to 1000 | > 1000 |  |  |  | 
Cc1nn([C@H]2C[C@H](CNc3ccc4c(c3)C(=O)N(C3CCC(=O)NC3=O)C4=O)C2)c2ccccc12 (stereo partly drawn) [GS-689, 2-(2,6-Dioxopiperidin-3-yl)-5-(((trans-3-(3-methyl-1H-indazol-1-yl)cyclobutyl)methyl)amino)isoindoline-1,3-dione] | 100 to 1000 | 10 to 100 | 10 to 100 | 10 to 100 |  |  | 

Now from value to molecule, other results behind:

IC50 [1, 3] [nM] | IC50 [1, 4] [nM] | IC50 [2, 5] [nM] | IC50 [2, 6] [nM] | SMILES | IC50 ([1]; Homo sapiens, MOLM-13, 72 h, read-out: MOLM-13 IC50 (nM)) [nM] | IC50 ([1]; read-out: MOLM-13 IC50 (nM) + 10 nM Gil, MOLM-13 cells, with gilteritinib, three days) [nM] | IC50 ([2]; Homo sapiens, MV4-11, 72 h, 11 IC50 (nM)) [nM]
> 1000 | 100 to 1000 | > 1000 |  | Cc1ccc2c(C3CC3)nn([C@H]3C[C@H](CNc4ccc5c(c4)C(=O)N(C4CCC(=O)NC4=O)C5=O)C3)c2n1 (stereo partly drawn) [GS-672, 5-(((Trans-3-(3-cyclopropyl-6-methyl-1H-pyrazolo[3,4-b]pyridin-1-yl)cyclobutyl)methyl)amino)-2-(2,6-dioxopiperidin-3-yl)isoindoline-1,3-dione] |  |  | 
> 1000 | 100 to 1000 | > 1000 | 100 to 1000 | Cc1cnc2c(c1)c(C1CC1)nn2[C@H]1C[C@H](CNc2ccc3c(c2)C(=O)N(C2CCC(=O)NC2=O)C3=O)C1 (stereo partly drawn) [GS-673, 5-(((Trans-3-(3-cyclopropyl-5-methyl-1H-pyrazolo[3,4-b]pyridin-1-yl)cyclobutyl)methyl)amino)-2-(2,6-dioxopiperidin-3-yl)isoindoline-1,3-dione] |  |  | 
> 1000 |  | > 1000 |  | COc1ccc2c(C3CC3)nn([C@H]3C[C@H](CNc4ccc5c(c4)C(=O)N(C4CCC(=O)NC4=O)C5=O)C3)c2n1 (stereo partly drawn) [GS-674, 5-(((Trans-3-(3-cyclopropyl-6-methoxy-1H-pyrazolo[3,4-b]pyridin-1-yl)cyclobutyl)methyl)amino)-2-(2,6-dioxopiperidin-3-yl)isoindoline-1,3-dione] |  |  | 
> 1000 | 100 to 1000 | > 1000 | 100 to 1000 | Cc1ccnc2c1c(C1CC1)nn2[C@H]1C[C@H](CNc2ccc3c(c2)C(=O)N(C2CCC(=O)NC2=O)C3=O)C1 (stereo partly drawn) [GS-679, 5-(((Trans-3-(3-cyclopropyl-4-methyl-1H-pyrazolo[3,4-b]pyridin-1-yl)cyclobutyl)methyl)amino)-2-(2,6-dioxopiperidin-3-yl)isoindoline-1,3-dione] |  |  | 
> 1000 | 10 to 100 | > 1000 | 100 to 1000 | COc1ccnc2c1c(C1CC1)nn2[C@H]1C[C@H](CNc2ccc3c(c2)C(=O)N(C2CCC(=O)NC2=O)C3=O)C1 (stereo partly drawn) [GS-681, 5-(((Trans-3-(3-cyclopropyl-4-methoxy-1H-pyrazolo[3,4-b]pyridin-1-yl)cyclobutyl)methyl)amino)-2-(2,6-dioxopiperidin-3-yl)isoindoline-1,3-dione] |  |  | 
100 to 1000 | 10 to 100 | 10 to 100 | < 10 | COc1cnc2c(c1)c(C1CC1)nn2[C@H]1C[C@H](CNc2ccc3c(c2)C(=O)N(C2CCC(=O)NC2=O)C3=O)C1 (stereo partly drawn) [GS-682, 5-(((Trans-3-(3-cyclopropyl-5-methoxy-1H-pyrazolo[3,4-b]pyridin-1-yl)cyclobutyl)methyl)amino)-2-(2,6-dioxopiperidin-3-yl)isoindoline-1,3-dione] |  |  | 
> 1000 | 100 to 1000 | > 1000 | 100 to 1000 | Cn1ccnc1-c1cn([C@H]2C[C@H](CNc3ccc4c(c3)C(=O)N(C3CCC(=O)NC3=O)C4=O)C2)nc1C1CC1 (stereo partly drawn) [GS-687, 5-(((Trans-3-(3-cyclopropyl-4-(1-methyl-1H-imidazol-2-yl)-1H-pyrazol-1-yl)cyclobutyl)methyl)amino)-2-(2,6-dioxopiperidin-3-yl)isoindoline-1,3-dione] |  |  | 
